# Reference: US6046219A, “Method for the treatment of conditions mediated by collagen formation together with cell proliferation by application of inhibitors of protein hydroxylation” (Cornell Research Foundation, Inc., priority 1997, dated 2000)
# Molecular target: T1, purified human prolyl 4-hydroxylase (Homo sapiens, UniProt P13674)
# T1 construct: made in house; host or cells: Spodoptera frugiperda insect cells (baculovirus, co-expression of α- and β-subunits)
# Assay: Assay of purified human prolyl 4-hydroxylase (14CO2 release from 2-oxoglutarate, cell-free)
# Format: biochemical
# Experimental: The effect on the enzyme was determined in a cell-free system by measuring the oxidative decarboxylation of its cofactor 2-oxoglutarate via release of radiolabeled carbon dioxide in a standard reaction mixture also containing ascorbate, ferrous sulfate, and unhydroxylated peptide substrate.
# The inhibitory action of the substances according to the invention, for example on collagen secretion or cell proliferation, can be tested in direct assays of the enzymes mediating the pivotal protein hydroxylations for these biological processes, such as prolyl 4-hydroxylase and deoxyhypusyl hydroxylase. This entails the enzymatic hydroxylation of the appropriate protein precursor, either by the cellular or the purified enzyme, in the presence or absence of compounds of Formulae (I) or (II), with concomitant determination of co-substrate utilization by these enzymes or subsequent isolation of the hydroxylated amino acid and its unhydroxylated precursor. In this manner, the inhibitory potency of any given compound can be measured in the cell-free system, in cell culture, or in tissue, and is expressed as the inhibitory dose that gives a 50% reduction of the enzyme-mediated reaction (ID50). Enzyme is tested in analogy to the method of A. Abbruzzese, H. M. Hanauske-Abel, et al., Biochem. Biophys. Acta, 1077, 159-166 (1991) and of K. Majamaa, H. M. Hanauske-Abel, et al., Eur. J. Biochem. 138, 239-245 (1984), which are hereby incorporated by reference. Table III lists the ID50 values of some of the compounds according to the invention, using purified human prolyl 4-hydroxylase and cellular human deoxyhypusyl hydroxylase as representative protein hydroxylases.
# The inhibiting effect of hydroxypyridones on the collagen-hydroxylating enzyme was studied in a cell-free system.
# Assay of purified human prolyl 4-hydroxylase
# The native α2 β2 -tetrameric enzyme was purified to homogeneity by poly(L-proline) affinity chromatography and DEAE chromatography from the supernatant of Spodoptera frugiperda insect cells cotransfected with recombinant baculovirus transfer vectors for both the human α- and β-subunits. Enzyme activity was determined by trapping of ^14 CO2 released from 2-oxo[1-^14 C][glutarate] according to the procedure of Majamaa, et al., Eur. J. Biochem., 138:239-245 (1984), which is hereby incorporated by reference. Briefly, all incubations were run for 60 minutes at 37° C. in a final volume of 1.0 ml per test sample, containing 0.1 μg enzyme, 0.1 mg heat-denatured (Pro-Pro-Gly)10 ×9 H2 O as hydroxylatable substrate, 0.1 mM 2-oxo[1-^14 C][glutarate] adjusted to 60,000 dpm by mixing with the unlabeled 2-oxoglutarate as cosubstrate, and cofactors (1.6 mM ascorbate, 0.05 mM ferrous sulfate, 0.08 mM dithiothreitol, 2 mg bovine serum albumin, 5 μL catalase). Assays are performed with only one of the active compounds at any given time.
# T1 sequence (P13674 18-534): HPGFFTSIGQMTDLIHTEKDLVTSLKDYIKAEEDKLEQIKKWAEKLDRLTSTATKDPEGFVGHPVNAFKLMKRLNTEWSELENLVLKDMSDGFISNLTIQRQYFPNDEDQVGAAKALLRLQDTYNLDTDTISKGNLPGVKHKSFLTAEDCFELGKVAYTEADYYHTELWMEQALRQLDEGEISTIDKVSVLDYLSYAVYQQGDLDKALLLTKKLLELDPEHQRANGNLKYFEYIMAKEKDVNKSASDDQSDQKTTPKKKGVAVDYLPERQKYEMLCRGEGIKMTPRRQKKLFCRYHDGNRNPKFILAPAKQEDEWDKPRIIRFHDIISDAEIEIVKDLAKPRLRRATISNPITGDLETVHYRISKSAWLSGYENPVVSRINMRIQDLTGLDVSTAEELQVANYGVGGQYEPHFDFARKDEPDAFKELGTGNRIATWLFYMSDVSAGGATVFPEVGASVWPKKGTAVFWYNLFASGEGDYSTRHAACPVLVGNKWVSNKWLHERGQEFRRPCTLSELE
# T1 sequence (P07237 18-508 partner): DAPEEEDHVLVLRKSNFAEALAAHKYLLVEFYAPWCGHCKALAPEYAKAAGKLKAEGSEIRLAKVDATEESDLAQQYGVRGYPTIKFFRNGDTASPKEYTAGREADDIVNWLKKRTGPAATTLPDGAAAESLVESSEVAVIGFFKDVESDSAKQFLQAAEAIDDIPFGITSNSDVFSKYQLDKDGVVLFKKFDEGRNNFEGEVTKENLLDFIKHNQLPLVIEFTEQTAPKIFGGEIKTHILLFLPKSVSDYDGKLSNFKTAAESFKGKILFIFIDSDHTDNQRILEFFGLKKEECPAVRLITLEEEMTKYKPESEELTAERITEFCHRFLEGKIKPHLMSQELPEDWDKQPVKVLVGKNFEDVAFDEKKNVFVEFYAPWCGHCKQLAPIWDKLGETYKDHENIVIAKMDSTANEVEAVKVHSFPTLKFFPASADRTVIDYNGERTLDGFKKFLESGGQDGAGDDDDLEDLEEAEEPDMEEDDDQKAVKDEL
structure (smiles),measurement,setting,value
N[C@@H](Cn1ccc(=O)c(O)c1)C(=O)O [L-Mimosine],inhibition of purified human prolyl 4-hydroxylase,"cell-free system, FIG. 1",directly inhibit
same,Prolyl 4-hydroxylase ID50 (purified),"purified human enzyme, inhibitory dose that gives 50% reduction of the enzyme-mediated reaction, unit assumed",120 µM
